One test deals with BRD4-BD1-BD2 (Homo sapiens (Human), UniProt O60885). The test is described as follows: AlphaScreening assay, recombinant BRD4-BD1-BD2 and BET Ligand. Type of test: binding. The conditions noted are these: 2.5 nM BRD4-BD1-BD2, BET Ligand. How it is done:
Assays were performed by AlphaScreening technology using a recombinant BRD4-BD1-BD2 and BET Ligand. The AlphaScreening signal from the assay was correlated with the amount of BET Ligand binding to the bromodomain. The compounds were diluted in 50% DMSO and 1 μl of the dilution was added to a 10 μl reaction so that the final concentration of DMSO is 5% in all of reactions. All reactions were conducted at room temperature. The 9 μl reaction mixture in BRD Assay Buffer contains 2.5 nM BRD4-BD1-BD2 and the indicated amount of the inhibitor, and the reaction mixture were incubated for 30 min followed by additional 30 min incubation after the addition of 1 μl of BET Ligand (Table 2.3.1). For the negative control (blank), 1 μl of the assay buffer was added instead of the BET Ligand. After the 30 min incubation with the BET Ligand, 20 μl of BRD Detection buffer containing 10 μg/ml Glutathione acceptor beads and 10 μg/ml Streptavidin Donor beads was added and the final 30 μl mixture was incubated for 50 min in a dark room.
AlphaScreening signal was measured using EnSpire Alpha 2390 Multilabel reader (Perkin Elmer). Binding experiments were performed in duplicate at each concentration. The AlphaScreening data were analyzed using the computer software, Graphpad Prism. In the absence of the compound, the AlphaScreening signal (At) in each data set was defined as 100% activity. In the absence of the BET Ligand, the AlphaScreening signal (Ab) in each data set was defined as 0% activity. The percent activity in the presence of each compound was calculated according to the following equation: % activity=[(A−Ab)/(At−Ab)]×100, where A=the AlphaScreening signal in the presence of the compound, Ab=the AlphaScreening signal in the absence of the BET Ligand, and At=the AlphaScreening signal in the absence of the compound. The percent inhibition was calculated for certain compounds according to the following equation: % inhibition=100−% activity.

The test system of test [1] is MV4-11 acute myeloid leukemia cells. Kind of test: In vitro cell viability (AlamarBlue), MV4-11. The following applies: Homo sapiens, MV4-11 cells, 72-hour incubation, read-out: In Vitro Cell Viability (IC50) MV4-11 Cells (AML). Type of test: cell-based. How it is done: MV4-11 acute myeloid leukemia cells (American Type Culture Collection, Manassas, Va.) were added to 96-well clear bottom assay plates containing RPMI-1640 medium supplemented with 10% fetal bovine serum (FBS) at approximately 30,000 cells/well and incubated for 24 hours at 37° C. with 5% CO2 and 95% humidity. Control wells containing no cells were included to measure background fluorescence signal. Test compounds were dissolved at […] and diluted two-fold in DMSO to produce a working stock of compound solutions. Aliquots of the working stock solutions were subsequently diluted 100-fold in basal RPMI-1640 medium which was then further diluted 10-fold to the assay plate containing the cells to provide 10 test concentrations ranging from 0.04 μM-20 μM. Following a 72-hour incubation period, viability of the cells was determined by the AlamarBlue® assay (Life Technologies, Carlsbad, Calif.) following the manufacturer's protocol. Prior to generation of dose response curves, the data were background subtracted using the no cell control values (mean+/−standard deviation) and fluorescence values versus Log10 concentration of test compounds were plotted using GraphPad Prism. The resulting sigmoidal curve was then fit to the graph and IC50 values were calculated using a 4 parameter (4PL) algorithm using the following equation: 4(PL)F(x)=(A−D)/(1+(x/c)^B+D, where A=lower asymptote (baseline response), D=upper asymptote (maximum response), C=drug concentration that provokes a response halfway between A and D, B=slope of the curve. The results for selected compounds are set forth in Table 7.
(In general: Alamar Blue is a resazurin reagent that responds to reducing activity.)

Another test deals with human BRD4 protein (Homo sapiens (Human), UniProt O60885). The test is described as follows: AlphaScreen assay, BRD4 (bromodomain 1 and 2) with histone H4 peptide. Type of test: binding. The following applies: for IC50: 25 nM BRD4, histone H4 peptide, 8 concentrations (10 nM-10 μM), read-out: BRD4-BD1-BD2 IC50; for BRD4-BD1-BD2 % Inhibition: test compounds assayed at 10 μM or 31.6 μM for screening. How it is done:
The interactions between test compounds and BRD4 protein containing both bromodomain 1 and bromodomain 2 were measured with human BRD4 protein with N-terminal His tag (BPS Bioscience, San Diego, Calif.) using AlphaScreen® assay at room temperature. A 9 μl reaction mixture in BRD Assay Buffer (BPS Bioscience) containing 25 nM BRD4 and test compounds at various concentrations were incubated for 30 minutes followed by additional 30-minute incubation with 1 μl of 20 μM histone H4 peptide (residue 1-21) in the presence of 5% DMSO. Test compounds (see Table 4) were assayed at 10 μM or 31.6 μM for screening purpose, while 8 different concentrations (10 nM-10 μM) were used for IC50 measurements. After the incubation, 20 μl of BRD Detection Buffer (BPS Bioscience) containing 10 μg/ml Glutathione Acceptor beads and 10 μg/ml Streptavidin Donor beads (PerkinElmer, Waltham, Mass.) was added and the mixture was incubated for 50 minutes in darkroom. Binding measurements were taken in duplicate at each concentration using EnSpire® Alpha Multimode Plate Reader Model 2390 (PerkinElmer). The AlphaScreen data were analyzed using Graphpad Prism (La Jolla, Calif.). In the absence of the compound, the AlphaScreen signal (At) in each data set was defined as 100% activity. In the absence of the histone H4 peptide ligand, the AlphaScreen signal (Ab) in each data set was defined as 0% activity. The percent activity in the presence of each compound was calculated according to the following equation: % activity=[(A−Ab)/(At−Ab)]×100, where A=the AlphaScreen signal in the presence of compound; Ab=the AlphaScreen signal in the absence of the histone peptide ligand; and At=the AlphaScreen signal in the absence of the compound. The percent inhibition was calculated according to the following equation: % inhibition=100−% activity.
(Bead proximity is the source of the signal in Alpha formats.)

For `CCN(CC)C(=O)Sc1c(-c2ccccc2)c2cc(OC)c(-c3c(C)noc3C)cc2[nH]c1=O`, the inhibition at 10 µM at BRD4-BD1-BD2 came to 65%.
Regarding `Cc1noc(C)c1-c1ccc2c(c1)c(-c1ccccc1)cc(=O)n2Cc1ccccc1`, on BRD4-BD1-BD2, the inhibition at 10 µM was determined as 74%.
Regarding `Cc1noc(C)c1-c1ccc2[nH]c(=O)cc(-c3ccccc3)c2c1`, the inhibition at 10 µM at BRD4-BD1-BD2 is 82%.
Same read-out and setting: as for `Cc1noc(C)c1-c1ccc2c(-c3ccccc3)cc(=O)[nH]c2c1`, the figure is 85%.
On the same count and under the same terms, then `Cc1noc(C)c1-c1ccc2[nH]c(=O)cc(NCc3ccccc3)c2c1`, with 99%.
In the case of `O=C(/C=C/c1ccccc1)c1c(-c2ccccc2)c2cc(Cl)ccc2[nH]c1=O` [Compound 1], the IC50 in test [1] is 110 nM. Moreover, at human BRD4 protein, the 50% inhibitory concentration (IC50) is 2430 nM and the “BRD4-BD1-BD2 % Inhibition” value came out at 87%.
On to `O=C(/C=C/c1cccs1)c1c(-c2ccccc2)c2cc(Cl)ccc2[nH]c1=O` [Compound 7, 6-chloro-4-phenyl-3-(3-(thiophen-2-yl)acryloyl)quinolin-2(1H)-one], for which the IC50 in test [1] turned out to be 2300 nM.
Regarding `CN(C)c1ccc(/C=C/C(=O)c2c(-c3ccccc3)c3cc(Cl)ccc3[nH]c2=O)cc1` [Compound 8, 6-chloro-3-(3-(4-(dimethylamino)phenyl)acryloyl)-4-phenylquinolin-2(1H)-one], in test [1], the IC50 was determined as 10300 nM.
`O=C(/C=C/c1ccc2c(c1)OCCO2)c1c(-c2ccccc2)c2cc(Br)ccc2[nH]c1=O` [Compound 9, 6-bromo-3-(3-(2,3-dihydrobenzo[b][1,4]dioxin-6-yl)acryloyl)-4-phenylquinolin-2(1H)-one]: the half-inhibitory concentration (IC50) in test [1] worked out at 5520 nM.
For `O=C(/C=C/c1c(F)cccc1Cl)c1c(-c2ccncc2)c2cc(Cl)ccc2[nH]c1=O` [Compound 15, 6-chloro-3-(3-(2-chloro-6-fluorophenyl)acryloyl)-4-(pyridin-4-yl)quinolin-2(1H)-one], the half-maximal inhibitory concentration (IC50) in test [1] is 1180 nM.
Take `Cc1cncc(F)c1/C=C/C(=O)c1c(-c2cccnc2)c2cc(Cl)ccc2[nH]c1=O` [Compound 16, 6-chloro-3-(3-(3-fluoro-5-methylpyridin-4-yl)acryloyl)-4-(pyridin-3-yl)quinolin-2(1H)-one]: in test [1], the IC50 was found to be 400 nM.
Take `Cc1nc(-c2c(N3CCCCC3)c3cc(Cl)ccc3[nH]c2=O)co1` [Compound 21]: in test [1], the IC50 stood at 8600 nM.
As to `Cc1nc(-c2c(N3CCCC3)c3cc(Cl)ccc3[nH]c2=O)co1` [Compound 22], the IC50 in test [1] is 1800 nM.
Same read-out and setting: then `O=C(/C=C/c1ccccc1)c1c(-c2ccccc2)c2cc(Br)ccc2[nH]c1=O` [Compound 81], with 3000 nM.
Consider `COc1ccc(Cn2c(=O)c(-c3coc(C)n3)c(OS(=O)(=O)c3ccc(C)cc3)c3cc(Cl)ccc32)cc1` [Compound 83], for which, on human BRD4 protein, the half-inhibitory concentration (IC50) was found to be 442 nM and the “BRD4-BD1-BD2 % Inhibition” value was 99%.
For the compound `COc1ccc(Cn2c(=O)c(-c3coc(C)n3)c(OS(=O)(=O)c3ccccc3)c3cc(Cl)ccc32)cc1` [Compound 84], on human BRD4 protein, the IC50 amounted to 372 nM and the “BRD4-BD1-BD2 % Inhibition” value is reported as 98%.
For the compound `COc1ccc(Cn2c(=O)c(-c3coc(C)n3)c(OS(=O)(=O)c3ccc(F)cc3)c3cc(Cl)ccc32)cc1` [Compound 85], at human BRD4 protein, the 50% inhibitory concentration (IC50) worked out at 876 nM and the “BRD4-BD1-BD2 % Inhibition” value amounted to 99%.
Turning to `COc1ccc(Cn2c(=O)c(-c3coc(C)n3)c(OS(=O)(=O)c3ccc(Cl)cc3)c3cc(Cl)ccc32)cc1` [Compound 86], on human BRD4 protein, the half-maximal inhibitory concentration (IC50) was found to be 670 nM and the “BRD4-BD1-BD2 % Inhibition” value worked out at 99%.
In the case of `COc1ccc(Cn2c(=O)c(-c3coc(C)n3)c(OS(=O)(=O)c3ccc4ccccc4c3)c3cc(Cl)ccc32)cc1` [Compound 87], at human BRD4 protein, the IC50 turned out to be 139 nM and the “BRD4-BD1-BD2 % Inhibition” value is 99%.
For the compound `COc1ccc(Cn2c(=O)c(-c3coc(C)n3)c(OS(=O)(=O)c3cccc4cccnc34)c3cc(Cl)ccc32)cc1` [Compound 88], on human BRD4 protein, the half-inhibitory concentration (IC50) came out at 864 nM and the “BRD4-BD1-BD2 % Inhibition” value worked out at 98%.
In the same order, the values of `COc1ccc(Cn2c(=O)c(-c3coc(C)n3)c(OS(=O)(=O)c3ccc(-c4ccccc4)cc3)c3cc(Cl)ccc32)cc1` [Compound 89] are 586 nM and 99%.
With `Cc1noc(C)c1-c1ccc2[nH]c(=O)c(C(=O)/C=C/c3ccccc3)c(-c3cccnc3)c2c1` [Compound 90], on human BRD4 protein, the IC50 stood at 11200 nM and the “BRD4-BD1-BD2 % Inhibition” value worked out at 62%.
In the case of `C=CCn1c(Sc2c(-c3ccccc3)c3cc(Cl)ccc3[nH]c2=O)nnc1-c1cccs1` [Compound 97], at human BRD4 protein, the IC50 was determined as 5800 nM and the “BRD4-BD1-BD2 % Inhibition” value is on record as 59%.
As for `COc1ccc(-c2cc(=O)[nH]c(Sc3c(-c4ccccc4)c4cc(Cl)ccc4[nH]c3=O)n2)cc1` [Compound 98], at human BRD4 protein, the 50% inhibitory concentration (IC50) turned out to be 6700 nM and the “BRD4-BD1-BD2 % Inhibition” value is 64%.
With `O=c1[nH]c2ccc(Cl)cc2c(-c2ccccc2)c1SC(=S)N1CCOCC1` [Compound 121], on human BRD4 protein, the IC50 is 7300 nM and the “BRD4-BD1-BD2 % Inhibition” value is on record as 68%.
As to `CCN(CC)C(=S)Sc1c(-c2ccccc2)c2cc(Cl)ccc2[nH]c1=O` [Compound 122], on human BRD4 protein, the IC50 amounted to 26800 nM and the “BRD4-BD1-BD2 % Inhibition” value turned out to be 65%.
In the case of `O=c1[nH]c2cc(Cl)ccc2c(-c2ccccc2)c1Sc1nc2ccccc2s1` [Compound 124], at human BRD4 protein, the IC50 came to 17300 nM and the “BRD4-BD1-BD2 % Inhibition” value worked out at 50%.
On to `CSc1nsc(Sc2c(-c3ccccc3)c3ccc(Cl)cc3[nH]c2=O)n1` [Compound 126], for which, on human BRD4 protein, the IC50 is 23600 nM and the “BRD4-BD1-BD2 % Inhibition” value is reported as 50%.
For the compound `CCN(CC)CCCNC(=O)C1CCCN(c2c(-c3ccccc3)c3cc(Cl)ccc3[nH]c2=O)C1` (stereo not drawn) [Compound 127], the 50% inhibitory concentration (IC50) in test [1] was 5450 nM.
Take `CNC(=S)N1N=C(c2c(-c3ccccc3)c3cc(Cl)ccc3[nH]c2=O)CC1c1ccccc1` (stereo not drawn) [Compound 128]: at human BRD4 protein, the concentration for half-maximal inhibition (IC50) was 16300 nM and the “BRD4-BD1-BD2 % Inhibition” value is 64%.
Regarding `Cc1ccc(-c2nnc(Sc3c(-c4ccccc4)c4cc(Cl)ccc4[nH]c3=O)n2N)cc1` [Compound 132], on human BRD4 protein, the IC50 came to 3700 nM and the “BRD4-BD1-BD2 % Inhibition” value is on record as 92%.
As to `COc1ccc(OC)c(NCc2c(OC)ccc3ccccc23)c1` [Compound 143], at human BRD4 protein, the “BRD4-BD1-BD2 % Inhibition” value is recorded as 99%.
For `O=c1[nH]c2ccc(Br)cc2c(-c2ccccc2)c1-c1cc(-c2ccccc2)[nH]c(=S)n1` [Compound 144], at human BRD4 protein, the IC50 stood at 49 nM and the “BRD4-BD1-BD2 % Inhibition” value was greater than 90%.
Turning to `O=c1[nH]c2ccc(Cl)cc2c(-c2ccccc2)c1-c1cc(-c2ccccc2)[nH]c(=S)n1` [Compound 145], at human BRD4 protein, the IC50 was found to be 1440 nM and the “BRD4-BD1-BD2 % Inhibition” value stood at 72%.

One may read the inhibition as the share of the control response that was lost under treatment. The term IC50 denotes the point on the concentration scale where inhibition reaches its midpoint.

The values above are taken from patent US9695179B2, “Methods and compositions for inhibition of bromodomain-containing proteins” (CONVERGENE LLC, priority 2013, dated 2017).
